Data taken from patent US20100093642A1, “NOVEL POLYPEPTIDES” (priority 2006, published 2010).
Values after ≈ are worked out from the molar mass of the structure shown. Read-outs that look alike come from different tables or passages of the source. No end group written: not given here.

Key:
[1] = system: human skin malignant melanoma cell line A2058; assay type: cell-based; conditions: 24 hours, maximum 200 μg/ml
Protocol: (§1) The cytotoxic effects of the peptides on different human tumour cells were measured using the MTT colorimetric assay (Mosmann, 1983). […] Dissolved MIT is converted to an insoluble purple formazan by cleavage of the tetrazolium ring by dehydrogenase enzymes. This water insoluble formazan can be solubilized using isopropanol or other solvents and the dissolved material is measured spectrophotometrically. The absorbance was measured as a function of concentration of converted dye. The conversion of the soluble dye to the insoluble purple formazan is utilized in assays for measurement of cell proliferation. […] We used this assay to measure the degree of cell death caused by the peptides. MCF-7 was maintained in EMEM, A2058 in DMEM and […]-29 in RPMI-1640 medium supplemented with 10% heat inactivated […] and 1% L-glutamine-L-alanine in a humidified atmosphere of 5% CO2 at 37° C. The human embryonic fibroblast cell line, MRC-5 (which is normal fibroblasts), was cultured as a monolayer in MEM medium, under the same conditions as described for the tumour cell lines. Cells to be used in the assay were grown to a minimum of 75% confluency, trypsinated and split to single cell suspension, counted and centrifuged at 1500 rpm for 10 min. The cell pellet was resuspended to a concentration of 2×10^5 cells/ml (HT-29) or 1×10^5 (MRC-5, MCF7 and A2058) in DMEM without FBS and L-glutamine-L-alanine (assay-medium). All cell lines were routinely tested for mycoplasma infection using a PCR-based mycoplasma detection kit (MycoSensor PCR Assay Kit, Stratagene), following the supplier's instructions. All cell lines were mycoplasma free. The cytotoxicity was measured using the MTT method (Mosmann, 1983), with minor modifications. Different human tumour cells (1-2×10^5) were applied in 96-well culture plates in a volume of 100 μl DMEM medium and incubated at 37° C. for 24 hours. The medium was removed and the cells were treated with 100 μl of peptide solution (concentrations ranging from 0 to 200 μg/ml), diluted in a) RPMI-1640 medium supplemented with 5% heat inactivated FBS, or b) RPMI-1640 medium without FBS. The plates were incubated at 37° C. for 24 hours. Cells treated with Triton X-100 (1%) was used as positive control (100% killing) whereas cells plus medium only were used as negative control. […] A volume of 70 μl of the supernatant was then removed and […] (0.04 M HCl in isopropanol) added to each well. The plate was placed on a shaker for 1 hour at room temperature and read spectrophotometrically at 590 nm in a microtiter plate reader (DTX880 Multimode Detector, Beckman Coulter).

[2] = system: human embryonic lung fibroblast cell line MRC-5; assay type: cell-based; conditions: normal fibroblasts, 24 hours, maximum 200 μg/ml
Protocol: as §1

[3] = system: human breast malignant carcinoma cell line MCF-7; assay type: cell-based; conditions: 24 hours, maximum 200 μg/ml
Protocol: as §1

[4] = system: human colorectal adenocarcinoma cell line HT-29; assay type: cell-based; conditions: 24 hours, maximum 200 μg/ml
Protocol: as §1

L. anguillarum = assay type: cell-based, Listonella (Vibrio) anguillarum; conditions: lowest concentration causing optical density less than 50% of growth control
Protocol: (§2) The Gram-negative bacteria Listonella (Vibrio) anguillarum, serotype O2 (FT 1801, also coded as AL 104/LFI 6004), originally isolated from Atlantic salmon by staff of the Norwegian Veterinary Institute (Oslo, Norway), Escherichia con (ATCC 25922), and the Gram-positive bacteria Staphylococcus aureus (ATCC 9144) and Corynebacterium glutamicum (ATCC 13032) were used as test organisms. All isolates were grown at room temperature in Mueller Hinton Broth (MBB; Difco Laboratories, Detroit, U.S.A).
(§3) The antibacterial activities of the obtained HPLC fractions were determined by continuous monitoring of bacterial growth with a Bioscreen C microbiology reader (Labsystems Oy, Helsinki, Finland). The test was performed in 100-well flat-bottomed honeycomb plates, in which […] of test fractions were incubated with 50 μl of a suspension of an actively growing culture of bacteria diluted to a starting concentration of 5×10^3 cells per well. The growth chamber was maintained at 20° C. during the incubation period. The absorbance was measured at 2 h intervals for 48 h by a turbidometric method with vertical light photometry and a wide band filter (420-580 nm), which is more insensitive to colour change in the sample compared to single wavelength detection. Cecropin P1(0.5 μg/ml) was used as a positive control during these experiments. Antibacterial activity was determined when the optical density (OD) of the growth control (bacteria plus water) reached an absorbance of approximately 0.3. Fractions were regarded as active when the OD was less than 50% of the growth control.
(§4) The polypeptides of the present invention were isolated and subsequently tested for activity. A serial dilution method was employed to examine the antibacterial activity of the peptides. Two Gram-negative bacteria, L. anguillarum and E. coli, and two Gram-positive bacteria, C. glutamicum and S. aureus, were chosen as test bacteria. The polypeptides of the present invention were active against both Gram-positive and Gram-negative bacteria (table 4).

S. aureus = assay type: cell-based, Staphylococcus aureus; conditions: lowest concentration causing optical density less than 50% of growth control
Protocol: as §2, §3, §4

C. glutamicum = assay type: cell-based, Corynebacterium glutamicum; conditions: lowest concentration causing optical density less than 50% of growth control
Protocol: as §2, §3, §4

E. coli = assay type: cell-based, Escherichia coli; conditions: lowest concentration causing optical density less than 50% of growth control
Protocol: as §2, §3, §4

Pseudomonas K15-60 = assay type: cell-based; conditions: clinical isolate; 37° C.; 3×10^6 cells per ml
Protocol: (§5) The antibacterial activities of the different peptides were determined by continuous monitoring of bacterial growth with a Bioscreen C microbiology reader (Labsystems Oy, Helsinki, Finland). The test was performed in 100-well flat-bottomed honeycomb plates, in which 50 μl of test fractions were incubated with 50 μl of a suspension of an actively growing culture of bacteria diluted in Mueller Hinton medium to a starting concentration of 3×10^4 cells per ml. The Gram-negative bacteria, Listonella (Vibrio) anguillarum, serotype O2 (FT 1801, a fish pathogenic strain), Pseudomonas aeruginosa and E. coli (ATCC 25922), and the Gram-positive bacteria, C. glutamicum (ATCC 13032) and S. aureus (ATCC 9144), were chosen as test bacteria. The growth chamber was maintained at either 20 or 37° C. during the incubation period. The absorbance was measured at 2 h intervals for 48 h by a turbidometric method with vertical light photometry and a wide band filter (420-580 nm), which is more insensitive to color change in the sample compared to single wavelength detection. Antibacterial activity was determined when the optical density (OD) of the growth control (bacteria plus water) reached an absorbance of 0.3-0.4. Fractions were regarded as active when the OD was less than 50% of the growth control. Polymyxin B (Sigma, St. Louis, Mo., USA), Lactoferricin B, Cecropin P1 and Hyalophora cecropia Cecropin B were used as reference.
(§6) The antimicrobial molecules were also tested against drug resistant clinical isolates, such as the commonly encountered multi-resistant human pathogen S. aureus (MRSA) K15-64 and the glycopeptide (vancomycin)-resistant Enterococccus faecium (GREF) K9-28. The non-clinical isolates Escherichia coli (ATCC 25922), Pseudomonas aeruginosa (ATCC 27853), Corynebacterium glutamicum (ATCC 13032), and Staphylococcus aureus (ATCC 9144) were also tested for comparison. Serial dilutions of synthetic peptides were made in double distilled water and tested according to the method described above. However, in these experiments the starting concentration of bacteria were 3×10^6 cells per ml and the temperature in the growth chamber was 37° C. Polymyxin B was used as positive control for the Gram-negative bacteria.

[5] = system: Acinetobacter baumannilii, K15-9; assay type: cell-based; conditions: clinical isolate; 37° C.; 3×10^6 cells per ml
Protocol: as §5, §6

Escherichia coli, K15-58 = assay type: cell-based; conditions: clinical isolate; 37° C.; 3×10^6 cells per ml
Protocol: as §5, §6

[6] = system: Citrobacter freundii, K15-75; assay type: cell-based; conditions: clinical isolate; 37° C.; 3×10^6 cells per ml
Protocol: as §5, §6

Klebsiella K15-72 = assay type: cell-based; conditions: clinical isolate; 37° C.; 3×10^6 cells per ml
Protocol: as §5, §6

Salmonella K14-40 = assay type: cell-based; conditions: clinical isolate; 37° C.; 3×10^6 cells per ml
Protocol: as §5, §6

[7] = RPMI-1640 medium containing 5% FBS

Molecule | Antitumoral activity IC50, A2058 [1, 7] | IC50, MRC-5 [2, 7] | Antitumoral activity IC50, MCF-7 [3, 7] | Antitumoral activity IC50, MCF-7 ([3]; serum-free RPMI-1640 medium) | Antitumoral activity IC50, HT-29 [4, 7] | Antitumoral activity IC50, HT-29 ([4]; serum-free RPMI-1640 medium) | Minimal inhibitory concentration (MIC), L. anguillarum (L. anguillarum) [µM] | Minimal inhibitory concentration (MIC), S. aureus (S. aureus) [µM] | Minimal inhibitory concentration (MIC), C. glutamicum (C. glutamicum) [µM] | Minimal inhibitory concentration (MIC), E. coli (E. coli) [µM] | further results
NC(Cc1c[nH]c2ccc(Br)cc12)C(=O)O [5-D/L-Br-Trp, 5-Bromo-D/L-tryptophan, reference compound] | — (The symbol “—” denotes no activity within the concentration range tested.) | * (The symbol “*” denotes 30-50% killing at the highest concentration tested.) | — (The symbol “—” denotes no activity within the concentration range tested.) | — (The symbol “—” denotes no activity within the concentration range tested.) | — (The symbol “—” denotes no activity within the concentration range tested.) | * (The symbol “*” denotes 30-50% killing at the highest concentration tested.) |  |  |  |  | Antitumoral activity IC50, A2058 ([1]; serum-free RPMI-1640 medium): — (The symbol “—” denotes no activity within the concentration range tested.); IC50, MRC-5 ([2]; serum-free RPMI-1640 medium): * (The symbol “*” denotes 30-50% killing at the highest concentration tested.)
NC(Cc1c[nH]c2cc(Br)ccc12)C(=O)O [6-D/L-Br-Trp, 6-Bromo-D/L-tryptophan, reference compound] | * (The symbol “*” denotes 30-50% killing at the highest concentration tested.) | * (The symbol “*” denotes 30-50% killing at the highest concentration tested.) | * (The symbol “*” denotes 30-50% killing at the highest concentration tested.) | * (The symbol “*” denotes 30-50% killing at the highest concentration tested.) | * (The symbol “*” denotes 30-50% killing at the highest concentration tested.) | * (The symbol “*” denotes 30-50% killing at the highest concentration tested.) |  |  |  |  | IC50 ([1]; serum-free RPMI-1640 medium, read-out: Antitumoral activity IC50, A2058): 655 µM; IC50 ([2]; serum-free RPMI-1640 medium, read-out: IC50, MRC-5): 584 µM
CC[C@H](C)[C@@H]1NC(=O)[C@H](CO)NC(=O)[C@@H]2CCCN2C(=O)[C@H](C)NC(=O)CNC(=O)[C@H](CC(C)C)NC(=O)[C@H](CCCCN)NC(=O)[C@H](CCCCN)NC(=O)[C@H](CCSC)NC(=O)[C@H](CCCNC(=N)N)NC(=O)[C@H](Cc2c[nH]c3ccccc23)NC(=O)[C@H](CCC(N)=O)NC(=O)[C@H](Cc2c[nH]c3ccccc23)NC(=O)[C@H](CCCNC(=N)N)NC(=O)[C@H](CCCNC(=N)N)NC(=O)[C@@H](NC(=O)[C@H](CCCCN)NC(=O)[C@@H](N)Cc2ccccc2)CSSC[C@@H](C(=O)N[C@H](C(=O)N[C@@H](CCCNC(=N)N)C(=O)N[C@@H](CCCNC(=N)N)C(=O)N[C@@H](C)C(=O)N[C@@H](Cc2ccccc2)C(=O)O)C(C)C)NC(=O)[C@H]([C@@H](C)O)NC1=O [Lactoferricin B] |  |  |  |  |  |  | 3.1 (≈ 9.68 µg/mL) | 6.3 (≈ 19.7 µg/mL) | 1.6 (≈ 5 µg/mL) | 3.1 (≈ 9.68 µg/mL) | 
P20: dimeric polypeptide from S. droebachiensis coelomocytes: first monomer SEQIDNO7, second monomer SEQIDNO8 (chain 1 SXFSRTVHNVGNAVRKGIHAGQGVCSGLGL; chain 2 DLRAICAGAHAL; not fully specified (bridges); X: residue not identified in the source; cysteine pairing not given here; also: heterodimer of two chains; listed as Strongylocentrotus droebachiensis) [Peptide P20] |  |  |  |  |  |  | 2.5 | 5.0 | 1.3 | 2.5 | 
Polymyxin B [reference compound] |  |  |  |  |  |  | 0.8 | 6.3 | 1.6 | 0.8 | Minimal inhibitory concentration, Pseudomonas K15-60 (Pseudomonas K15-60): 3.12 µM; Minimal inhibitory concentration, Acinetobacter baumannilii, K15-9 [5]: 0.78 µM; Minimal inhibitory concentration, Escherichia coli, K15-58 (Escherichia coli, K15-58): 3.12 µM; Minimal inhibitory concentration, Citrobacter freundii, K15-75 [6]: 0.78 µM; Minimal inhibitory concentration, Klebsiella K15-72 (Klebsiella K15-72): 6.25 µM; Minimal inhibitory concentration, Salmonella K14-40 (Salmonella K14-40): 3.12 µM
